Where a name gives a salt, the structure may show the parent alone.
Experiments:
5-HT7 receptor = target: T1, 5-HT7 receptor (Homo sapiens, UniProt P34969); assay: LANCE Ultra cAMP assay, inhibition of 5-CT-induced cAMP in HEK-293 cells overexpressing 5-HT7bR; assay type: cell-based
T1 construct: gene HTR7; 5-HT7bR
Text: LANCE Ultra cAMP assay, inhibition of 5-CT-induced cAMP in HEK-293 cells overexpressing 5-HT7bR on 5-HT7 receptor | Both behaved as 5-HT7R antagonists | Both behaved as 5-HT7R antagonists, while 7b·HCl additionally acted as a 5-HT1AR antagonist in a cAMP assay.

5-HT1A receptor = target: T2, 5-HT1A receptor (Homo sapiens, UniProt P08908); assay: LANCE Ultra cAMP functional antagonist assay in HEK293 cells; assay type: cell-based
T2 construct: gene HTR1A
T2 sequence (P08908 1-422): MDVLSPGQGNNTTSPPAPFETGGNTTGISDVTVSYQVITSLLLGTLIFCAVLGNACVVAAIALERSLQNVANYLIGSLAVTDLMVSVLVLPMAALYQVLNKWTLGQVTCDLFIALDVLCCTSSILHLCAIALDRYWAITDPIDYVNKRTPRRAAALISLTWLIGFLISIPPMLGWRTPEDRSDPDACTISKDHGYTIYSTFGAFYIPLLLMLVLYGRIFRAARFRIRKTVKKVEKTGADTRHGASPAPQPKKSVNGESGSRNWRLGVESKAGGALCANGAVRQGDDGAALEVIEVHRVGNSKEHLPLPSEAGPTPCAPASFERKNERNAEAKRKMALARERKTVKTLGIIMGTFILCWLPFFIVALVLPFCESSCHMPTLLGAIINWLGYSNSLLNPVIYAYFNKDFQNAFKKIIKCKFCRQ
Text: LANCE Ultra cAMP functional antagonist assay in HEK293 cells on 5-HT1A receptor | 7b·HCl additionally acted as a 5-HT1AR antagonist in a cAMP assay

CYP3A4 = CYP3A4 (Homo sapiens, UniProt P08684); assay: CYP3A4 P450-Glo luminescence assay (Promega), single concentration […]; assay type: biochemical
CYP3A4, sequence (P08684 2-503): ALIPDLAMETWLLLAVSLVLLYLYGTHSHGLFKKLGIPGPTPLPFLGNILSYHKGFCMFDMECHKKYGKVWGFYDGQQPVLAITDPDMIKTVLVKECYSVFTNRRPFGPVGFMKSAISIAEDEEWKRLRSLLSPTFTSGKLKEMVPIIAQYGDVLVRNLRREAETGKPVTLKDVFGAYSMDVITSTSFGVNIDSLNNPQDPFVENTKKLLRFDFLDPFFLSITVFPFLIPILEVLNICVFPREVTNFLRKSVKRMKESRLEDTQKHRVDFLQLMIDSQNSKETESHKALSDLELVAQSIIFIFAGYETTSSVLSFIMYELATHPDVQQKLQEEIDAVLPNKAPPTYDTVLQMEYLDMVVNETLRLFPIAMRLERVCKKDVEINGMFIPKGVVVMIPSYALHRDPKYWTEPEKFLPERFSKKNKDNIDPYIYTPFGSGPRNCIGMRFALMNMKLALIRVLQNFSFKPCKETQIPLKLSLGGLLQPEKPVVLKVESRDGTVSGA

T1 sequence (P34969 1-432): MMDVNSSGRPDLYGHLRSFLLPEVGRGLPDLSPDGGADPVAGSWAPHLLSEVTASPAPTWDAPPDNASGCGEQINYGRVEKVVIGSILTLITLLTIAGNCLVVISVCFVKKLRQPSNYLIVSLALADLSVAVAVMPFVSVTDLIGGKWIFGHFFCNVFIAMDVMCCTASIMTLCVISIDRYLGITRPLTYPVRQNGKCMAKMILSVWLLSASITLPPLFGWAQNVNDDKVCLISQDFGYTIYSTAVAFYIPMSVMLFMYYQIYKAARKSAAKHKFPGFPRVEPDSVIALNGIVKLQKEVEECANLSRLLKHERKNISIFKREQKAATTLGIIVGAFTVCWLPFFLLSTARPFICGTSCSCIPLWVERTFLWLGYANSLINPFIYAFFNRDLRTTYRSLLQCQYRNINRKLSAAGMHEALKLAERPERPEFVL

A Kb (5-HT7 receptor) of 87 nM was found for `O=c1n(CCCCCCN2CCN(c3cccc(Cl)c3)CC2)nc2ccccn12` [7a·HCl, 2-(6-(4-(3-chlorophenyl)piperazin-1-yl)hexyl)-[1,2,4]triazolo[4,3-a]pyridin-3(2H)-one hydrochloride] in this work.

A Kb (5-HT7 receptor) of 18 nM, a Kb (5-HT1A receptor) of 12 nM and an inhibition at 10 µM (CYP3A4) of 35% were found for `O=c1n(CCCCCCN2CCN(c3ccccc3-c3ccccc3)CC2)nc2ccccn12` [7b·HCl, 2-(6-(4-([1,1′-biphenyl]-2-yl)piperazin-1-yl)hexyl)-[1,2,4]triazolo[4,3-a]pyridin-3(2H)-one hydrochloride] in this work.
